In patent publication US6737383B1, “Herbicidal oxadiazolidines” (priority 1999, dated 2004):

What was measured:
[1] = tested on: wheat; assay: Test B pre/postemergence wheat; assay type: in vivo, Triticum aestivum
Procedure, shortened: (§1)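 Herbicidal effect was estimated by eye on a ten-point control scale after plants spent twelve to sixteen days in a greenhouse following soil or foliar treatment. Foliar sprays targeted plants at one to four leaves; all doses were formulated in a non-phytotoxic solvent with surfactant.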

[2] = tested on: sugar beet; assay: Test B pre/postemergence sugar beet; assay type: in vivo, Beta vulgaris
Procedure, shortened: as §1

[3] = tested on: smallflower flatsedge; assay: Test B flood test smallflower flatsedge; assay type: in vivo, Cyperus difformis
Procedure, shortened: (§2)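 Read-out is a visual response score from 0 (no effect) to 10 (complete control), assigned by comparison with untreated controls. Treatment was applied at the 2-leaf stage, and plants stayed in the greenhouse for twelve to sixteen days before scoring.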

[4] = tested on: blackgrass; assay: Test B pre/postemergence blackgrass; assay type: in vivo, Alopecurus myosuroides
Procedure, shortened: as §1

[5] = tested on: rice; assay: Test B flood test rice; assay type: in vivo, Oryza sativa
Procedure, shortened: as §2

[6] = tested on: bamyardgrass; assay: Test B flood test barnyardgrass; assay type: in vivo, Echinochloa crus-galli
Procedure, shortened: as §2

[7] = tested on: wild oat; assay: Test B pre/postemergence wild oat; assay type: in vivo, Avena fatua
Procedure, shortened: as §1

[8] = tested on: velvetleaf; assay: Test B pre/postemergence velvetleaf; assay type: in vivo, Abutilon theophrasti
Procedure, shortened: as §1

[9] = tested on: surinam grass; assay: Test B pre/postemergence surinam grass; assay type: in vivo, Brachiaria decumbens
Procedure, shortened: as §1

[10] = tested on: cocklebur; assay: Test B pre/postemergence cocklebur; assay type: in vivo, Xanthium strumarium
Procedure, shortened: as §1

[11] = tested on: corn; assay: Test B pre/postemergence corn; assay type: in vivo, Zea mays
Procedure, shortened: as §1

[12] = tested on: bedstraw; assay: Test B pre/postemergence bedstraw; assay type: in vivo, Galium aparine
Procedure, shortened: as §1

[13] = tested on: duck salad; assay: Test B flood test duck salad; assay type: in vivo, Heteranthera limosa
Procedure, shortened: as §2

[14] = tested on: soybean; assay: Test B pre/postemergence soybean; assay type: in vivo, Glycine max
Procedure, shortened: as §1

[15] = tested on: purple nutsedge; assay: Test B pre/postemergence purple nutsedge; assay type: in vivo, Cyperus rotundus
Procedure, shortened: as §1

[16] = tested on: rape; assay: Test B pre/postemergence rape; assay type: in vivo, Brassica napus
Procedure, shortened: as §1

[17] = tested on: crabgrass; assay: Test B pre/postemergence crabgrass; assay type: in vivo, Digitaria sanguinalis
Procedure, shortened: as §1

[18] = Postemergence, Rate 62 g/ha, scale 0 to 10, 0 is no effect, 10 is complete control
[19] = Postemergence, Rate 250 g/ha, scale 0 to 10, 0 no effect, 10 complete control
[20] = Preemergence, Rate 62 g/ha, scale 0 to 10, 0 is no effect, 10 is complete control
[21] = Preemergence, Rate 125 g/ha, scale 0 to 10 (0 no effect, 10 complete control)
[22] = Preemergence, Rate 250 g/ha, scale of 0 to 10 where 0 is no effect and 10 is complete control
[23] = Preemergence, Rate 500 g/ha, scale 0 (no effect) to 10 (complete control)
[24] = Rate 125 g/ha, Postemergence, scale 0 to 10, 0 no effect, 10 complete control
[25] = Rate 500 g/ha, Postemergence, scale 0 to 10, 0 no effect, 10 complete control
[26] = Rate 125 g/ha, Postemergence section (flood test species), scale 0 to 10, 0 no effect, 10 complete control
[27] = Rate 500 g/ha, listed under Postemergence (flood test species), scale 0 to 10, 0 no effect, 10 complete control
[28] = flood test, listed under Postemergence, Rate 250 g/ha, scale 0 to 10, 0 no effect, 10 complete control

Cc1ccccc1-n1c(=O)on(C(=O)N(c2ccc(C#N)cc2)C(C)C)c1=O [Compound 51]
Wheat plant response rating [1, 18]: 0
Wheat plant response rating [1, 19]: 0
Plant response rating, Wheat [1, 20]: 0
Plant response rating, Wheat [1, 21]: 0
Plant response rating, Wheat [1, 22]: 0
Wheat plant response rating [1, 23]: 0
Wheat plant response rating [1, 24]: 0
Wheat plant response rating [1, 25]: 0
Sugarbeets plant response rating [2, 18]: 0
Sugarbeets plant response rating [2, 19]: 0
Plant response rating, Sugarbeets [2, 20]: 0
Plant response rating, Sugarbeets [2, 21]: 0
Plant response rating, Sugarbeets [2, 22]: 0
Sugarbeets plant response rating [2, 23]: 0
Sugarbeets plant response rating [2, 24]: 0
Sugarbeets plant response rating [2, 25]: 0
S. Flatsedge plant response rating [3, 18]: 0
S. Flatsedge plant response rating [3, 26]: 0
S. Flatsedge plant response rating [3, 27]: 0
S. Flatsedge plant response rating [3, 28]: 0
Blackgrass plant response rating [4, 18]: 0
Blackgrass plant response rating [4, 19]: 0
Plant response rating, Blackgrass [4, 20]: 0
Plant response rating, Blackgrass [4, 21]: 0
Plant response rating, Blackgrass [4, 22]: 0
Blackgrass plant response rating [4, 23]: 0
Blackgrass plant response rating [4, 24]: 0
Blackgrass plant response rating [4, 25]: 0
Rice plant response rating [5, 18]: 0
Rice plant response rating [5, 26]: 0
Rice plant response rating [5, 27]: 0
Rice plant response rating [5, 28]: 0
Barnyardgrass plant response rating [6, 18]: 0
Barnyardgrass plant response rating [6, 26]: 0
Barnyardgrass plant response rating [6, 27]: 0
Barnyardgrass plant response rating [6, 28]: 0
Wild oats plant response rating [7, 18]: 0
Wild oats plant response rating [7, 19]: 0
Plant response rating, Wild oats [7, 21]: 0
Plant response rating, Wild oats [7, 22]: 0
Wild oats plant response rating [7, 23]: 0
Wild oats plant response rating [7, 24]: 0
Wild oats plant response rating [7, 25]: 0
Velvetleaf plant response rating [8, 18]: 0
Velvetleaf plant response rating [8, 19]: 0
Plant response rating, Velvetleaf [8, 20]: 0
Plant response rating, Velvetleaf [8, 21]: 0
Plant response rating, Velvetleaf [8, 22]: 0
Velvetleaf plant response rating [8, 23]: 0
Velvetleaf plant response rating [8, 24]: 0
Velvetleaf plant response rating [8, 25]: 0
B. signalgrass plant response rating [9, 18]: 0
B. signalgrass plant response rating [9, 19]: 0
Plant response rating, B. signalgrass [9, 20]: 0
Plant response rating, B. signalgrass [9, 21]: 0
Plant response rating, B. signalgrass [9, 22]: 0
B. signalgrass plant response rating [9, 23]: 0
B. signalgrass plant response rating [9, 24]: 0
B. signalgrass plant response rating ([9]; Rate 500 g/ha, Postemergence, scale of 0 to 10 where 0 is no effect and 10 is complete control): 0
Cocklebur plant response rating [10, 18]: 0
Cocklebur plant response rating [10, 19]: 0
Plant response rating, Cocklebur [10, 20]: 0
Plant response rating, Cocklebur [10, 21]: 0
Plant response rating, Cocklebur [10, 22]: 0
Cocklebur plant response rating [10, 23]: 0
Cocklebur plant response rating [10, 24]: 0
Cocklebur plant response rating [10, 25]: 0
Corn plant response rating [11, 18]: 0
Corn plant response rating [11, 19]: 0
Plant response rating, Corn [11, 20]: 0
Plant response rating, Corn [11, 21]: 0
Plant response rating, Corn [11, 22]: 0
Corn plant response rating [11, 23]: 0
Corn plant response rating [11, 24]: 0
Corn plant response rating [11, 25]: 0
Bedstraw plant response rating [12, 18]: 0
Bedstraw plant response rating [12, 19]: 0
Plant response rating, Bedstraw [12, 20]: 0
Plant response rating, Bedstraw [12, 21]: 0
Plant response rating, Bedstraw [12, 22]: 0
Bedstraw plant response rating [12, 23]: 0
Bedstraw plant response rating [12, 24]: 0
Ducksalad plant response rating [13, 18]: 0
Ducksalad plant response rating [13, 26]: 0
Ducksalad plant response rating [13, 27]: 0
Ducksalad plant response rating [13, 28]: 0
Soybean plant response rating [14, 18]: 0
Soybean plant response rating [14, 19]: 0
Plant response rating, Soybean [14, 20]: 0
Plant response rating, Soybean [14, 21]: 0
Plant response rating, Soybean [14, 22]: 0
Soybean plant response rating [14, 23]: 0
Soybean plant response rating [14, 24]: 0
Soybean plant response rating [14, 25]: 1
Nutsedge plant response rating [15, 18]: 0
Nutsedge plant response rating [15, 19]: 0
Plant response rating, Nutsedge [15, 20]: 0
Plant response rating, Nutsedge [15, 21]: 0
Plant response rating, Nutsedge [15, 22]: 0
Nutsedge plant response rating [15, 23]: 0
Nutsedge plant response rating [15, 24]: 0
Nutsedge plant response rating [15, 25]: 0
Rape plant response rating [16, 18]: 0
Rape plant response rating [16, 19]: 0
Plant response rating, Rape [16, 20]: 0
Plant response rating, Rape [16, 21]: 0
Plant response rating, Rape [16, 22]: 0
Rape plant response rating [16, 23]: 0
Rape plant response rating [16, 24]: 0
Rape plant response rating [16, 25]: 0
Crabgrass plant response rating [17, 18]: 0
Crabgrass plant response rating [17, 19]: 3
Plant response rating, Crabgrass [17, 20]: 0
Plant response rating, Crabgrass [17, 21]: 0
Plant response rating, Crabgrass [17, 22]: 2
Crabgrass plant response rating [17, 23]: 2
Crabgrass plant response rating [17, 24]: 0
Crabgrass plant response rating [17, 25]: 4
